In PubChem BioAssay AID1902 (Broad Institute, 2009):
The source made the active and inactive calls.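 How the source made its calls: active means EC50 no more than a set limit of log units above the highest dose; inactive means the rest.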

Biological target: S. pyogenes SKKanGAS, kanamycin survival, BacTiterGlo, 6 h
Assay: S. pyogenes SKKanGAS kanamycin growth inhibitors – SKKanGAS strain, luminescence, dose confirmation, streptokinase promoter inhibitor project, dose response (AID 1902);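 further: lower survival reflects blocked streptokinase promoter driving kanamycin resistance gene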

Row | Structure (SMILES) | EC50
1 | Cc1ccccc1NC1=C/C(=N\S(=O)(=O)c2ccc(C(=O)O)cc2)c2ccccc2C1=O | 1.9 µM
2 | CN1C(=O)/C(=C/c2ccccc2Cl)Sc2ccc(C(=O)NCc3cccnc3)cc21 | 4.69 µM
3 | CC(C)(C)c1ccc(OCC(=O)NNC(=S)NC(=O)c2ccco2)c(Br)c1 | < 0.06 µM
4 | COc1cc(C(=O)NNC(=S)NC(=O)c2ccccc2C)cc(OC)c1OC | 1.88 µM
5 | CCCn1c(NC(=O)c2ccccc2)nc2ccccc21 | 1.57 µM
6 | O=C(CSc1ccccn1)N/N=C/c1cc([N+](=O)[O-])ccc1O | 1.04 µM
7 | CCCCCCCCOC(=O)c1c(CSC(=N)N)n(C)c2cc(Br)c(OC(C)=O)cc12 | 2.83 µM
8 | COc1ccc(-c2cc(C(F)(F)F)nc(NCc3cccs3)n2)cc1 | 4.95 µM
9 | CC(C)=CCCC1(C)C=Cc2c(c(C)cc3c2[nH]c2cc(O)ccc23)O1 (stereo unspecified) | 2.65 µM
10 | O=C(Cc1csc(NC(=O)Nc2cccc(Cl)c2)n1)NCc1ccccn1 | 6.87 µM
11 | COc1ccc(O)c(-c2cc(-c3cccc(Br)c3)n[nH]2)c1 | 9.97 µM
12 | CCCn1c(NC(=O)c2ccc(Cl)c(S(=O)(=O)N3CCCC3)c2)nc2ccccc21 | 1.67 µM
13 | CCCCCCCCCCn1c2c(c(=N)c3c1CCC3)CCC2 | 9.26 µM
14 | COc1cc(N=c2c([N+](=O)[O-])nn(-c3ccc4c(c3)OCCO4)n2O)cc(OC)c1 | 5.24 µM
15 | Cc1nn(-c2ccccc2)c(C)c1/C=N/NC(=O)c1cc(C23CC4CC(CC(C4)C2)C3)[nH]n1 | 6.98 µM
16 | CC(C)CC(=O)NC(NC(=S)Nc1sc2c(c1C#N)CCCC2)C(Cl)(Cl)Cl (stereo unspecified) | 1.66 µM
17 | COc1ccc(S(=O)(=O)NCC2CCCN(Cc3ccc(OC)cc3F)C2)cc1 (stereo unspecified) | > 15 µM (inactive)
18 | Cc1ccc(C(=O)N2CCOCC2)cc1Cl | > 15 µM (inactive)
19 | CCn1cc(C(=O)OCC(=O)c2cc(C)n(-c3cccc(C(F)(F)F)c3)c2C)c(=O)c2ccc(C)nc21 | 9.92 µM
20 | CCOc1cccc2sc(Nc3nc4ccc(NC(C)=O)cc4s3)nc12 | 4.69 µM
21 | O=c1cc2oc3cc(O)c(O)cc3c(-c3ccccc3[N+](=O)[O-])c-2cc1O | 9.36 µM
22 | N#Cc1c(-c2ccccc2)c(-c2ccccc2)nn(CC(=O)NNC(=O)Nc2ccc(Cl)c(Cl)c2)c1=O | 5.3 µM

Row | Structure (SMILES) | EC50
23 | NC(=S)N/N=C\c1c(OCc2ccccc2Cl)ccc2ccccc12 | 2.53 µM
24 | COc1ccc(N=C2S/C(=C\c3ccc(OC(C)C(=O)O)c(OC)c3)C(=O)N2CCc2c[nH]c3ccccc23)cc1 (stereo unspecified) | 1.63 µM
25 | CCCCC(=O)O[C@H]1CC[C@H]2[C@@H]3CCc4cc(O)ccc4[C@H]3CC[C@]12C | 3.83 µM
26 | COc1ccccc1-n1cnc2c(c1=O)c1nc3ccccc3nc1n2-c1ccc(C)c(C)c1 | 9.11 µM
27 | O=C(CSc1ccccn1)Nc1nonc1[N+](=O)[O-] | 7.31 µM
28 | Cc1cc(=O)c(C(=O)O)cn1Nc1ccc(Cl)cc1 | 2.36 µM
29 | Cc1cc(C)nc(N/N=C/c2cc(Br)ccc2O)n1 | 12.9 µM
30 | COc1ccc(C(=O)CSc2[nH]c(=O)cc(C(F)(F)F)c2C#N)cc1 | 7.06 µM
31 | Cc1ccc(Cl)cc1N1CCN(C(=O)c2cccc3c(=O)c(C)c(-c4ccccc4)oc23)CC1 | 4 µM
32 | Cc1ccc(S(=O)(=O)N2CCCCC2)cc1NC(=O)CN1C(=O)CN(C)C1=O | > 15 µM (inactive)
33 | COc1ccc(C(C)=O)cc1COc1cc(C)c(Cl)c(C)c1 | > 15 µM (inactive)
34 | COc1cccc(-c2cc(C(=O)NCC3CCCO3)c3cc(Br)cc(C)c3n2)c1 (stereo unspecified) | > 15 µM (inactive)
35 | CC1CCN(c2nc3ccccc3nc2C(C#N)C(=O)NC2CCCCC2)CC1 (stereo unspecified) | 1.9 µM
36 | CCn1c(C)nc2cc(C(=O)NNC(=S)NC(=O)c3ccc(OC)cc3)ccc21 | 5.87 µM
37 | O=S(=O)(Nc1nccs1)c1ccc(Nc2nnc(-c3ccccc3)c3ccccc23)cc1 | 2.51 µM
38 | O=C(O)c1ccc(N2C(=O)CC(SC(=NCc3ccc4c(c3)OCO4)Nc3ccc(F)cc3)C2=O)cc1 (stereo unspecified) | 8.24 µM
39 | Cc1cccc(C)c1OC1(c2ccccc2)OC(=O)c2ccccc21 (stereo unspecified) | 2.85 µM
40 | CCn1c(=O)c(C(=O)NNC(=O)c2ccccc2)c(O)c2ccccc21 | 0.839 µM
41 | COc1ccc(/C=C/C(=O)NC(=S)N2CCN(c3ccccc3OC)CC2)cc1 | > 15 µM (inactive)
42 | CCCCC/C=C\C/C=C\C/C=C\C/C=C\CCCC(=O)Nc1ccc(O)cc1 | 1.2 µM
43 | c1ccc(Nc2nc(N3CCCCC3)nc(N3CCCCC3)n2)cc1 | 8.25 µM
44 | COc1cccc(-c2coc3c(C)c4oc(=O)c(CCC(=O)O)c(C)c4cc23)c1 | 3.73 µM

Row | Structure (SMILES) | EC50
45 | O=C(c1nc2ccc(Cl)cn2c1CN1CCC(CO)CC1)N1CCc2ccccc2C1 | > 15 µM (inactive)
46 | CC1COc2c(N3CCN(C)CC3)c(F)cc3c(=O)c(C(=O)O)cn1c23 (stereo unspecified) | 3.69 µM
47 | CC(C)(C)[C@@H]1CCC(=O)N(CC[C@H](Sc2ccccc2)c2ccccc2)CC1 | 3.95 µM
48 | CC(C)(C)NS(=O)(=O)c1ccc(NS(=O)(=O)Cc2ccccc2)cc1 | > 15 µM (inactive)
49 | CCN1/C(=C/c2ccc3ccccc3[n+]2CC)C=Cc2ccccc21 | 6.08 µM
50 | c1ccc(-c2nc(N3CCCCCC3)c3ccccc3n2)nc1 | 1.43 µM
51 | Nc1[nH]n2c(=O)cc(-c3ccccc3)nc2c1N=Nc1ccccc1 | 1.83 µM
52 | O=C(CN1C(=O)COc2ccc(S(=O)(=O)N3CCCCC3)cc21)NCc1ccc(F)cc1 | > 15 µM (inactive)
53 | CC1CCN(c2nc(-c3ccccc3)cc(C(F)(F)F)n2)CC1 | 4.58 µM
54 | COc1cc2ccccc2cc1C(=O)NC(=S)Nc1ccc(C(=O)O)cc1 | 4.44 µM
55 | O=C1Nc2ccccc2S/C1=C/Nc1cccc(Cl)c1 | 6.77 µM
56 | O=C1c2ccccc2CC1(Cc1ccccc1)Cc1ccccc1 | 4.35 µM
57 | CCC[N+]1(CC#CC2(O)CCCCC2)CCOCC1 | > 15 µM (inactive)
58 | O=C(O)c1ccc(N=Nc2c(O)[nH]c3ccc(Br)cc23)cc1 | 2.03 µM
59 | CC(C)CN(C(=O)COc1ccc(-c2nnco2)cc1)C1CCS(=O)(=O)C1 (stereo unspecified) | > 15 µM (inactive)
60 | COc1ccc(NC(=O)C(OC(=O)c2cnc(C)cn2)c2ccccc2)cc1Cl (stereo unspecified) | 11.7 µM
61 | COc1ccc(CCNC(=O)c2cc(-c3ccc(Cl)c(Cl)c3)oc2C)cc1 | 12.2 µM
62 | CC(C)=CCCC1(C)C=Cc2c(ccc3c2[nH]c2cc(O)c(C)cc23)O1 (stereo unspecified) | 3.04 µM
63 | Cc1ccc(NC(=O)c2cccc(OCc3c(C)noc3C)c2)cc1S(=O)(=O)Nc1ccccc1Cl | 7.39 µM
64 | CCCOc1ccc(C(=O)NC(=S)N2CCN(c3cc4c(cc3F)c(=O)c(C(=O)O)cn4CC)CC2)cc1 | 2.34 µM
65 | Cc1ccc(-c2cc(-c3ccccc3)nc(N(C)N)n2)cc1 | 6.06 µM
66 | Clc1ccc(-c2cc3ccccc3nc2N2CCCC2)cc1 | 5.14 µM

Row | Structure (SMILES) | EC50
67 | Cc1cccnc1NCc1ccc(O)c2ncccc12 | 5.65 µM
68 | O=C(Nc1ccccc1C(=O)O)c1cccc(NC(=O)c2ccc(Br)o2)c1 | 4.96 µM
69 | Cc1cc(C)n(-c2nc(C)nc(NCc3ccccc3)n2)n1 | > 15 µM (inactive)
70 | S=C(NCC1CCCCC1)Nc1ccc(Oc2ccccc2)cc1 | 11 µM
71 | Fc1ccc(-[n+]2nc(Nc3ccccc3)sc2-c2c3ccccc3cc3ccccc23)cc1 | 5.95 µM
72 | Cc1ccccc1N1CCN(C(=O)CCN2C(=O)c3ccccc3C2=O)CC1 | > 15 µM (inactive)
73 | O=c1cc2c(nn1Cc1ccc(Cl)cc1Cl)-c1ccccc1CC2 | 5.37 µM
74 | CC1=CC(C)(C)n2c(O)c(N=N)c3c(C)c(C)cc1c32 | 5.67 µM
75 | C/C(=N\NC(=O)c1cc2ccccc2cc1O)c1cccs1 | 12.5 µM
76 | CC(C)C(=O)Nc1ccc(C(=O)NNC(=S)NC(=O)c2cccs2)cc1 | 6.57 µM
77 | O=c1[nH]c(NNC(=S)NCc2ccccc2)nc2c1C1(CCCCC1)Cc1ccccc1-2 | 1.33 µM
78 | Oc1cccc2ccc(/C=C/c3ccccc3Br)nc12 | 0.158 µM
79 | CCc1ccc2nc(N3C(=O)C(O)=C(C(=O)c4ccco4)C3c3cccs3)sc2c1 (stereo unspecified) | 1.88 µM
80 | COc1ccc(OC)c(NC(=O)NC2CCCc3ccccc32)c1 (stereo unspecified) | > 15 µM (inactive)
81 | O=c1c2cc(Cl)ccc2nc(-c2ccc(Cl)c(Cl)c2)n1O | 0.235 µM
82 | CC(C)Cc1nnc(NC(=O)CCC(=O)N2CCN(c3ccccc3)CC2)s1 | > 15 µM (inactive)
83 | FC(F)(F)Oc1ccc(NC(=S)Nc2ccc(OC(F)(F)F)cc2)cc1 | 6.49 µM
84 | CCOc1ccc(N(CC(=O)NCc2ccc(C)cc2)S(=O)(=O)c2c(C)[nH]c(=O)[nH]c2=O)cc1 | > 15 µM (inactive)
85 | CCOC(=O)c1cc(-c2ccc(OC(F)F)cc2)nc2c1c(=O)[nH]c(=O)n2C | 0.392 µM
86 | CCc1cccc2c(C(=O)COC(=O)c3ccc([N+](=O)[O-])s3)c[nH]c12 | 0.735 µM
87 | Nc1nonc1C(=O)NCCN=Cc1cc(Cc2ccccc2)cc(Br)c1O | 5 µM
88 | COc1cc(Br)cc(/C=N/NC(=O)Cc2ccc(C(F)(F)F)cc2[N+](=O)[O-])c1O | 1.1 µM

Row | Structure (SMILES) | EC50
89 | O=C(NNC(=S)Nc1ccc(Cl)c(Cl)c1)c1ccccn1 | 1.66 µM
90 | CC(C)CN(Cc1cc(=O)oc2cc(-c3ccccc3)c(O)cc12)CC(C)C | 3.88 µM
91 | CCC(=O)Nc1ccc(Nc2nc(C)c([N+](=O)[O-])c(Nc3ccc(NC(=O)CC)cc3)n2)cc1 | 1.56 µM
92 | S=c1[nH]cnc2scc(-c3ccc(Cl)cc3)c12 | 9.77 µM
93 | COCc1cc(Sc2c(Cl)cccc2Cl)nc(-c2ccccc2)n1 | 10.5 µM
94 | CCOC(=O)N1CCN(C(=O)c2ccc3c(c2)NC(=O)/C(=C\c2ccc(OC)c(OC)c2)S3)CC1 | 1.1 µM
95 | CC(C)(O)c1ccccc1CC[C@@H](SCC1(CC(=O)O)CC1)c1cccc(/C=C/c2ccc3ccc(Cl)cc3n2)c1 | 1.44 µM
96 | Cc1cccc(NC(=O)c2nc[nH]c2C(=O)N[C@@H](Cc2ccccc2)C(=O)OC(C)(C)C)c1 | 1.44 µM
97 | Cc1ccc(C(=O)N/N=C/c2cc(Br)ccc2O)cn1 | 2.48 µM
98 | O=C(N/N=C/c1ccc([N+](=O)[O-])o1)c1ccc(NS(=O)(=O)c2cccs2)cc1 | 3.55 µM
99 | Cc1cc(C)cc(NC(=S)NCCSc2ccc(Cl)cc2)c1 | 13.5 µM
100 | CC(NS(=O)(=O)/C=C/c1ccccc1)C(=O)O (stereo unspecified) | > 15 µM (inactive)
101 | O=C(CN1C(=O)S/C(=C\C=C\c2ccccc2)C1=O)Nc1ccccc1C(=O)O | 5.62 µM
102 | CC1(C)CN=C(Nc2nc3ccccc3s2)S1 | 6.75 µM
103 | CC(C)(C)c1ccc(OCC(=O)Nc2ccc(C(=O)Nc3ccccc3C(=O)O)cc2)cc1 | 1.54 µM
104 | Cc1ccc(NC(=S)N=Nc2c(O)[nH]c3ccccc23)cc1 | 0.631 µM
105 | CCCCC(=O)NC(=S)NNC(=O)CCc1ccccc1 | 5 µM
106 | C=CCNC(=S)N/N=C(\C)c1ccccn1 | 1.76 µM
